Patent US7008949B2, “Heterocyclic compounds which inhibit leukocyte adhesion mediated by α4 integrins” (Elan Pharmaceuticals, Inc., priority 2003, dated 2006)
pIC50: −log10 of the molar value.

Key:
α4β1 Integrin = biological target: T1, α4β1 Integrin (Homo sapiens, UniProt P05556+P13612); test: α4β1 Integrin Adhesion Assay: Jurkat cell adhesion to human plasma fibronectin; format: cell-based; details: Jurkat cells
T1 construct: endogenous in cells; host or cells: Jurkat cells
Procedure: 96 well plates (Costar 3590 EIA plates) were coated with human fibronectin (Gibco/BRL, cat #33016-023) at a concentration of 10 μg/mL overnight at 4° C. The plates were then blocked with a solution of bovine serum albumin (BSA; 0.3%) in saline. Jurkat™ cells (maintained in log phase growth) were labeled with Calcein AM according to the manufacturer's instructions, and suspended at a concentration of 2×10^6 cells/mL in Hepes/Saline/BSA. The cells were then exposed to test and control compounds for 30 minutes at room temperature before transfer to individual wells of the fibronectin coated plate. Adhesion was allowed to occur for 35 minutes at 37° C. The wells were then washed by gentle aspiration and pipetting with fresh saline. Fluorescence associated with the remaining adherent cells was quantified using a fluorescence plate reader at EX 485/EM 530.
Cell cultures were prepared by first splitting the stationary phase Jurkat™ cells at 1:10 on day one, and 1:2 on day two to perform assay on day 3. The cells split 1:10 on day one were split 1:4 on day 3 for a day 4 assay.
The assay plates were prepared by first making a working solution of Gibco/BRL Human Fibronectin (cat # 33016-023) in PBS++, at 10 μg/mL.
A Costar 3590 EIA plate was then coated with 50 μL/well for 2 hours at room temperature (thought it can also be left overnight at 4° C.). Finally the plate was asperated and blocked with Hepes/Saline Buffer, 100 μL/well, for 1 hour at RT followed by washing three times with 150 μL of PBS++.
Compound dilutions were accomplished by preparing 1:3 serial dilutions of compounds as follows. For each plate (4 compounds/plate) 600 μL were added to 4 Bio-Rad Titertubes in a Titertube rack. Enough compound was added to each appropriate tube to give a 2× concentration using methods well known in the art. Using Falcon Flexiplates, 100 μL of Hepes/Saline buffer or human serum were added to rows B through G. A multi-channel pipetter set to 180 μL was used to with four tips spaced evenly the pipetter. Each set of four tubes was mixed 5 times and 180 μL of 2× compound was transferred to the first column of each compound dilution in Row B, leaving Row A empty. 180 μL were added to the other wells in Row A. Serial dilutions were performed down the plate by transferring 50 μL to the next dilution and mixing 5 times, changing tips each time after mixing. Dilutions were stopped at Row F. Row G had no compound present.
A 20 μg/mL solution in Hepes/Saline buffer or human serum, of 21/6 antibody was the positive control and was set aside in a reagent trough to add to cell suspension plate.
The cell staining was accomplished by first harvesting the log-phase Jurkat™ cells by centrifugation in 50 mL tubes (1100 rpm for 5 minutes). The cells were resuspended in 50 mL PBS++, spun, and resuspend in 20 mL PBS++. The cells were stained by adding 20 μL of Calcein AM for 30 minutes R.T. The volume was brought to 50 mL with Hepes/Saline buffer and the cells were counted, spun, and resuspend to 2×10^6 cells/mL in Hepes/Saline buffer or human serum.
The compounds were incubated using the following procedure. In a new flexiplate, 65 μL of stained cells were added to Rows B through H. Then 65 μL of 2× compounds were added to the appropriate rows following the plate setup and mixed 3×. 65 μL of 2×-21/6 antibody were added to Row H and mixed 3×. Finally the plate was incubated at room temperature for 30 minutes.
Fibronectin adhesion was measured using a fluorescent plate reader at EX 485/EM 530 after the following work up procedure. After incubation, the cells were mixed 3× and 100 μL were transferred to the Fibronectin coated plates and incubated at 37° C. for about 35 minutes. Each plate was washed, row by row, by gently pipetting 100 μL of R.T. PBS++ down the sides of the wells and turning the plate 90 degrees to aspirate. This procedure was repeated for a total of 3 washes. Each well was filled with 100 μL after washing by pipetting down the side of the well. […]

[1] = Cassette dosing and serum analysis for determination of oral bioavailability; format: in vivo, rat; details: male SD rats, oral cassette of 6 compounds, total dose 10 mg/kg, plasma at 4, 8, 12 h
Procedure: The oral bioavailability was screened by dosing rats with a cassette, i.e. mixture of 6 compounds per dosing solution. The cassette included 5 test articles and a standard compound, for a total dose of 10 mg/kg. Each compound/test article was converted to the sodium salt with equimolar 1 N NaOH and dissolved in water at 2 mg/mL. The cassette was prepared by mixing equal volumes of each of the six solutions. The cassette dosing solution was mixed well and then the pH was adjusted to 7.5–9. The dosing solution was prepared the day before the study and stirred overnight at room temperature.
Male Sprague Dawley (SD) rats from Charles River Laboratories, 6–8 weeks old were used in this screen. Rats were quarantined for at least one day and had continuous access to food and water. On the night before the administration of the cassette, the rats were fasted for approximately 16 h.
Four SD rats were assigned in each cassette. A single dose of the dosing solution was administered orally to each rat. The dosing volume (5 mL/kg) and time were recorded and rats were fed 2 h after dosing.
Blood samples were collected via cardiac puncture at the following time points: 4 h, 8 h and 12 h. Immediately prior to blood collection, rats were anesthetized with CO2 gas within 10–20 seconds. After the 12-hour samples were collected, the rats were euthanized via CO2 asphyxiation followed by cervical dislocation.
Blood samples were kept in heparinized microtainer tubes under sub-ambient temperature (4° C.) before they were processed. Blood samples were centrifuged (10000 rpm for 5 minutes) and plasma samples were removed and stored in a −20° C. freezer until analyzed for drug levels. Drug levels in the plasma were analyzed using the following protocol for direct plasma precipitation.
The in vivo plasma samples were prepared in a 1.5 mL 96-well plate, by adding, in order, 100 μL of the test plasma, 150 μL of methanol, followed by vortexing for 10–20 seconds. 150 μL of 0.05 ng/μL of an Internal Standard in acetonitrile were added and vortexed for 30 seconds.
The standard curve samples were prepared in a 1.5 mL 96-well plate, by adding, in order, 100 μL of control mouse plasma, followed by 150 μL of methanol and vortexing for 10–20 seconds. 150 μL of 0.05 ng/μL of an Internal Standard in acetonitrile were added and vortexed for 30 seconds. The samples were spiked with 0–200 ng (10 concentrations) of the compound of interest in 50% methanol to obtain a standard curve range of 0.5 ng/mL–2,000 ng/mL. Again, the sample was vortexed for 30 seconds.
The samples were then spun for 20–30 minutes at 3000 rpm in an Eppendorf microfuge before 80–90% of supernatant was transferred into a clean 96-well plate. The organic solvent was then evaporated until the samples were dry (under N2 at 40° C./30–60 min (ZymarkTurbovap)).
The residue was then dissolved in […] mobile phase (50% CH3OH/0.1% TFA). LC/MS/MS was then run using a PE-Sciex API-3000 triple quadurpole mass spectrometer (SN0749707), Perkin-Elmer, Series200auto-sampler, and shimadzu 10A pump. Acquisition was done with PE-Sciex Analyst (v1.1) and data analysis and quantification were accomplished using PE-Sciex Analyst (v1.1). A 5–50 μL sample volume was injected onto a reverse phase ThermoHypersil DASH-18 column (Keystone 2.0×20 mm, 5 μm, PN: 8823025-701) using a mobile phase of 25% CH3OH, 0.1% TFA-100% CH3OH, 0.1% TFA. The run time was about 8 minutes at a flow rate of about 300 μL/minutes.
The Area Under the Curve (AUC) was calculated using the linear trapezoidal rule from t=0 to the last sampling time tx (see Handbook of Basic Pharmacokinetics, Wolfgang A. Ritschel and Gregory L. Kearns, 5th ed, 1999). AUC^0→tx═S((Cn+Cn+1)/2))·(tn+1−tn)[(μg/mL)h]
In the case of the cassette dosing paradigm, samples at 4, 8 and 12 h post extravascular dosing, the AUC was calculated from t=0 to t=12 h.

[2] = IC50, Cell Adhesion to Human Plasma Fibronectin (With Human Serum), with human serum
[3] = IC50, Cell Adhesion to Human Plasma Fibronectin (Without the Human Serum), without human serum

T1 sequence (P13612 34-1032): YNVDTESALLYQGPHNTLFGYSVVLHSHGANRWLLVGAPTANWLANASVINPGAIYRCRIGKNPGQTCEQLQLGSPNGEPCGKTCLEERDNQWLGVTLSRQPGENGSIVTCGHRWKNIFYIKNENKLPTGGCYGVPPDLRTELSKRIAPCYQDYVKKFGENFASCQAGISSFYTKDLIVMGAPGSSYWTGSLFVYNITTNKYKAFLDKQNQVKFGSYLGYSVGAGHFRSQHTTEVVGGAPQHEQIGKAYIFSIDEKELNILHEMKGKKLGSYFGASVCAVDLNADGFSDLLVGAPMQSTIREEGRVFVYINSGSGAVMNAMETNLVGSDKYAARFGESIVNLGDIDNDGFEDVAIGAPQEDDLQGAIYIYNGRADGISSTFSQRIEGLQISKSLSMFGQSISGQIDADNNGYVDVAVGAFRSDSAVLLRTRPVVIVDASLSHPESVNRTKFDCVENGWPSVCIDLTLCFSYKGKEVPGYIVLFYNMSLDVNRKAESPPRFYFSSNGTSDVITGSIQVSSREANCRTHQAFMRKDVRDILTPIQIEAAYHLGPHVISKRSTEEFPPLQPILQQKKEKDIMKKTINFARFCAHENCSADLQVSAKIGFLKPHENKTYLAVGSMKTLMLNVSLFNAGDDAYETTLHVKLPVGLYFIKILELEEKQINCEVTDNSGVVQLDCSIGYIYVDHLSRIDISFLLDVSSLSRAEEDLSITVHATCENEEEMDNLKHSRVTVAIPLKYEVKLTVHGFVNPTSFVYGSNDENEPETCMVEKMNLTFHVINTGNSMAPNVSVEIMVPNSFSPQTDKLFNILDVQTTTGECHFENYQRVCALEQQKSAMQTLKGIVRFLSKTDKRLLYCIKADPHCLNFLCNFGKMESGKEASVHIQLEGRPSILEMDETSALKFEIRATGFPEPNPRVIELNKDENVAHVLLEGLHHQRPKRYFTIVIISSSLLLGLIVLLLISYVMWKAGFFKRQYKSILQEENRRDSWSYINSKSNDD
T1 sequence (P05556 21-798): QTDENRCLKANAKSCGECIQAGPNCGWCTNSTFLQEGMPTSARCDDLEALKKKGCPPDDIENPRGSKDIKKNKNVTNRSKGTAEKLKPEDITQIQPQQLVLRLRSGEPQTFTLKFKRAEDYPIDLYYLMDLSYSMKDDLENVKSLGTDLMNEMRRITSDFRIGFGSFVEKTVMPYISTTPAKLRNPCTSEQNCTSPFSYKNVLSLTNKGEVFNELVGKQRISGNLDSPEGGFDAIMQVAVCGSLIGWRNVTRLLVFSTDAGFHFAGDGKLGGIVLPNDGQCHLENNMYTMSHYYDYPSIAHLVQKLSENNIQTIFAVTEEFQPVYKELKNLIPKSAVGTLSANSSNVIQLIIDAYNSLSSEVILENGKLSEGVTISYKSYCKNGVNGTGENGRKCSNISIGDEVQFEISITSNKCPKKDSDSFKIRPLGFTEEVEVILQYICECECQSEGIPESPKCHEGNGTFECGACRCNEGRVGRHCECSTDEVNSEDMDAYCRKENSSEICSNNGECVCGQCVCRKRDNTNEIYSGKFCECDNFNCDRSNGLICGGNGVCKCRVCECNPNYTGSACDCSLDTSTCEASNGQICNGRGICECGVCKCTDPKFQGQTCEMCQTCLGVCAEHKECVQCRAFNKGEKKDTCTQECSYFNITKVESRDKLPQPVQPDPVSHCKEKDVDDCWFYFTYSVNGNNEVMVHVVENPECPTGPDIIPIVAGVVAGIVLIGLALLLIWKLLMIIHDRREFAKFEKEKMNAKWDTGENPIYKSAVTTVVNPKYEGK

Compound | IC50, Cell Adhesion to Human Plasma Fibronectin (With Human Serum) (α4β1 Integrin; with human serum) [µg/mL] | IC50, Cell Adhesion to Human Plasma Fibronectin (Without the Human Serum) (α4β1 Integrin; without human serum) [µg/mL] | AUC (average AUC 0→12 h) [1] | pIC50 (α4β1 Integrin; [2]) | pIC50 (α4β1 Integrin; [3])
2-{2-diethylamino-5-[(2-fluorobenzenesulfonyl)methylamino]pyrimidin-4-ylamino}-3-(4-dimethylcarbamoyloxyphenyl)propionic acid [Example 6] | 0.3138 | 0.000511 | 0.6538 (μg/mL)h | – | –
C#CCN(c1cnc(N(CC)CC)nc1N[C@@H](Cc1ccc(OC(=O)N(C)C)cc1)C(=O)O)S(=O)(=O)c1ccc(F)cc1 [Example 27] | – | – | 1.6258 (μg/mL)h | 6.97 | 8.79
C#CCN(c1cnc(N(CC)CC)nc1NC(Cc1ccc(OC(=O)N(C)C)cc1)C(=O)O)S(=O)(=O)c1ccc(F)cc1F (stereo not drawn) [Example 28, 2-{2-Diethylamino-5-[(2,4-difluorobenzenesulfonyl)propargylamino]pyrimidin-4-ylamino}-3-(4-dimethylcarbamoyloxyphenyl)propionic acid] | – | – | 0.7968 (μg/mL)h | 7.14 | 8.20
CCN(CC)c1ncc(N(C)S(=O)(=O)c2cccc(F)c2)c(N[C@@H](Cc2ccc(OC(=O)N(C)C)cc2)C(=O)O)n1 [Example 7, 2-{2-diethylamino-5-[(3-fluorobenzenesulfonyl)methylaminol]pyrimidin-4-ylamino}-3-(4-dimethylcarbamoyloxyphenyl) propionic acid] | – | – | 0.717 (μg/mL)h | 6.00 | 8.86
2-{2-diethylamino-5-[(4-fluorobenzenesulfonyl)methylamino]pyrimidin-4-ylamino}-3-(4-dimethylcarbamoyloxyphenyl)propionic acid [Example 1] | 0.318 | 0.002 | 2.3308 (μg/mL)h | – | –
2-{2-diethylamino-5-[(benzenesulfonyl)methylamino]pyrimidin-4-ylamino}-3-(4-dimethylcarbamoyloxyphenyl)propionic acid [Example 5] | 1.851 | 0.001414 | 0.9577 (μg/mL)h | – | –
CCCN(c1cnc(N(CC)CC)nc1NC(Cc1ccc(OC(=O)N(C)C)cc1)C(=O)O)S(=O)(=O)c1ccc(F)cc1 (stereo not drawn) [Example 21, 2-{2-diethylamino-5-[(4-fluorobenzenesulfonyl)-n-propylamino]pyrimidin-4-ylamino}-3-(4-dimethylcarbamoyloxyphenyl) propionic acid] | – | – | 0.6321 (μg/mL)h | 6.19 | 8.29
CCN(CC)c1ncc(N(CC)S(=O)(=O)c2cc(Cl)cc(Cl)c2)c(N[C@@H](Cc2ccc(OC(=O)N(C)C)cc2)C(=O)O)n1 [Example 20] | – | – | 0.0536 (μg/mL)h | 6.93 | 8.11
2-{2-diethylamino-5-[(4-fluorobenzenesulfonyl)ethylamino]pyrimidin-4-ylamino}-3-(4-dimethylcarbamoyloxyphenyl)propionic acid [Example 9] | 0.106 | 0.001 | 1.564 (μg/mL)h | – | –
CCN(CC)c1ncc(N(C)S(=O)(=O)c2ccc(F)cc2F)c(N[C@@H](Cc2ccc(OC(=O)N(C)C)cc2)C(=O)O)n1 [Example 17] | – | – | 1.0075 (μg/mL)h | 7.40 | 8.78
CCN(CC)c1ncc(N(CC(F)(F)F)S(=O)(=O)c2ccc(F)cc2)c(NC(Cc2ccc(OC(=O)N(C)C)cc2)C(=O)O)n1 (stereo not drawn) [Example 29, 2-{2-diethylamino-5-[(4-fluorobenzenesulfonyl)-(2,2,2-trifluoroethyl)amino]pyrimidin-4-ylamino}-3-(4-dimethylcarbamoyloxyphenyl)propionic acid] | – | – | 0.2941 (μg/mL)h | 7.28 | 8.47
2-{2-diethylamino-5-[(4-fluorobenzenesulfonyl)allylamino]pyrimidin-4-ylamino}-3-(4-dimethylcarbamoyloxyphenyl)propionic acid [Example 22] | 0.02529 | 0.001506 | 0.6297 (μg/mL)h | – | –
CCCCN(c1cnc(N(CC)CC)nc1NC(Cc1ccc(OC(=O)N(C)C)cc1)C(=O)O)S(=O)(=O)c1ccc(F)cc1 (stereo not drawn) [Example 24, 2-{2-diethylamino-5-[(4-fluorobenzenesulfonyl)-n-butylamino]pyrimidin-4-ylamino}-3-(4-dimethylcarbamoyloxyphenyl)propionic acid] | – | – | 0.4983 (μg/mL)h | 7.37 | 8.32
